Marks after values point to notes of the source that are not given here.
How the values were obtained:
[1] = tested on: CPA-CLP sepsis mouse model; test: Effects of LPC, LPC isomers, Xigris and DW286aa on mortalities/survivabilities in CPA-CLP sepsis mouse model (SEP009); single i.v. 6 hrs after CLP; type: in vivo; settings: LPC, LPC18:0, LPC18:1, LPA 5 mpk, Xigris 0.4 mpk, DW286aa 10 mpk
Procedure: (§1) CPA is well known as an immunosuppressive agent. […] Then, the abdomen was closed following the general procedure.
(§2) Then, body weight and mortality changes were observed.
In the Sham and CLP control groups, 10 ml/kg of only sterile physiological saline was single intravenously dosed.

[2] = tested on: CPA-induced immunosuppressive mice; test: Thymus and spleen organ weights in CPA-treated mice; type: in vivo, ICR mice; settings: LPC 1, DW286 0.5, Mix 0.75 mg/kg
Procedure: At sacrifice of CPA-treated model, the wet-weights of spleen and thymus were measured and regarded as absolute weight and then relative organ weight (% of body weight) was calculated as follow:
=[(Absolute organ weights/Body weight at sacrifice individual)×100]

[3] = tested on: CPA-CLP mice; test: Mortality of CPA-CLP mice, LPC and DW286AA alone or combined (Example 9); s.c. 4 times 12-hr intervals from 6 hrs after CLP; type: in vivo, ICR mice; settings: for Survival rate: LPC 1, DW286 0.5, Mix 0.75 mg/kg; for survival rates (survivors/total in brackets), Table 13: mg/kg: LPC 1, LPC + DW286 0.5 + 0.25, DW286/LPC 0.5/1.0, LPC/DW286 1.0/0.5, DW286 0.5
From the text: as §1

[4] = tested on: CPA-induced immunosuppressive mice; test: Histopathology/histomorphometry of thymus and spleen in CPA-treated mice; type: in vivo, ICR mice
Procedure: After measuring of organ weight, thymus and spleen was sampled. Sampled organs were fixed in 10% neutral buffered formalin. After paraffin embedding, 3-4 μm sections were prepared. Representative sections were stained with Hematoxylin and Eosin (H&E) for light microscopical examination. After that the histological profiles of individual organs were observed.
The numbers of white pulps in spleen were calculated as N/histological sections (×50) using automated image analysis (analySIS Image Processing; SIS, Germany). In addition, the numbers of atrophic changes on thymic cortex/total observed number of thymus were also calculated.

[5] = Body weight of CPA-treated mice (Example 9); s.c. 4 times 12-hr intervals from 24 hrs after last CPA-dosing; settings: LPC 1, DW286 0.5, Mix 0.75 mg/kg
Procedure: In the INTACT control group, an equal volume of physiological saline was dosed instead of CPA by the same method.
In Intact control animals, equal volume of saline was only dosed instead of CPA with same methods.
(§3) In CPA-CLP model, body weight and mortalities were measured once a day for 5 days with automatic electronic balances (Sartorius Co., Ltd., USA), once a day for 2 days in CPA-treated model. All animals were overnight fasted at CPA dosing, CLP or initial dosing to reduce differences from feeding. In addition, body weight gains were calculated as follows:
CPA-Treat Model: Body weight at sacrifice—at initial dosing (2 days)
To find suitable dosing regime of LPC and DW286AA combination during the development of new therapeutic agents against sepsis, evaluation was conducted by using CPA-CLP— and CPA-induced immunosuppressive mice. […] Then, mortalities, changes in thymus and spleen weights, changes in white blood cell (WBC) number, and changes in thymic and splenic CD3+, CD4+, CD8+, and TNF-α+ cell numbers, were evaluated together with changes in bone marrow polychromatic erythrocytes contain micronuclei (MNPCE) number.
(§4) Appropriate doses of candidate materials were dissolved in 5% human serum albumin, and subcutaneously dosed at 10 ml/kg (of body weight), 4 times 12-hr intervals from 6 hrs after CLP or 24 hrs after last CPA-dosing, respectively. In the INTACT, CPA, or CPA-CLP control groups, an equal volume of 5% human serum albumin was dosed by the same procedure.

[6] = tested on: CPA-CLP sepsis mouse model; test: Combination effects of LPC and antibiotics (colistin, tobramycin, fusidin) in CPA-CLP sepsis mouse model (SEP013); single i.v. 6 hrs after CLP; type: in vivo, ICR mice; settings: mpk: LPC 5, DW286aa 5, Colistin 5, Tobra 4, Fusidin 80, LPC + Colistin 5 + 5, LPC + Tobra 5 + 4, LPC + Fusidin 5 + 80
From the text: as §1, §2

[7] = tested on: blood WBC; test: Blood WBC numbers and differential counts in CPA-treated mice; type: in vivo, ICR mice; settings: LPC 1, DW286 0.5, Mix 0.75 mg/kg
Procedure: Blood were collected at sacrifice of CPA-treated model from vena cava and total blood leukocyte numbers were calculated using counting chamber, diluting pipette and Türk solution as dilution solution. All numbers were calculated as ×10^3/mm^3. In addition, cell numbers of lymphocytes, eosinophils, neutrophils, monocytes and basophils were calculated among 100 total leukocytes in smear blood samples stained with Giemsa.

[8] = Body weight of CPA-CLP mice (Example 9); settings: LPC 1, DW286 0.5, Mix 0.75 mg/kg
Procedure: as §3
CPA-CLP Model: Body weight at sacrifice—at CLP(5 days)
Then, mortalities, changes in thymus and spleen weights, changes in white blood cell (WBC) number, and changes in thymic and splenic CD3+, CD4+, CD8+, and TNF-α+ cell numbers, were evaluated together with changes in bone marrow polychromatic erythrocytes contain micronuclei (MNPCE) number.
as §4

[9] = LPC 1, DW286 0.5, Mix 0.75 mg/kg
[10] = At First CPA dosing (overnight fasted)

Substance: Lysophosphatidylcholine [LPC]
- Mortalities ([1]; 1st CPA treat): 0
- survivabilities ([1]; 1st CPA treat): 100%
- Mortalities ([1]; 2nd CPA treat): 0
- survivabilities ([1]; 2nd CPA treat): 100%
- Mortalities ([1]; At CLP (day 0)): 0
- survivabilities ([1]; At CLP (day 0)): 100%
- Mortalities ([1]; Day 1): 1
- survivabilities ([1]; Day 1): 90%
- Mortalities ([1]; Day 2): 3
- survivabilities ([1]; Day 2): 60%
- Mortalities ([1]; Day 3): 1
- survivabilities ([1]; Day 3): 50%
- Mortalities ([1]; Day 4): 1
- survivabilities ([1]; Day 4): 40%
- Mortalities ([1]; Day 5): 2
- survivabilities ([1]; Day 5): 20%
- Mortalities ([1]; Day 6): 0
- survivabilities ([1]; Day 6): 20%
- Mortalities ([1]; Day 7): 1
- survivabilities ([1]; Day 7): 10%
- Mortalities ([1]; Day 8): 1
- survivabilities ([1]; Day 8): 0%
- Mortalities ([1]; Day 9): 0
- survivabilities ([1]; Day 9): 0%
- Mortalities ([1]; Day 10): 0
- survivabilities ([1]; Day 10): 0%
- Mortalities ([1]; Total): 10
- survivabilities ([1]; Total): 0%
- Spleen weight, Relative ([2]; % of body weight at sacrifice): 0.178 ± 0.018*^,# %
- Thymus weight, Relative ([2]; % of body weight at sacrifice): 0.099 ± 0.017 %
- absolute splenic weights, change compared to CPA control [2]: 35.62%
- absolute thymic weights, change compared to CPA control [2]: 13.31%
- relative splenic weights, change compared to CPA control [2]: 40.69%
- relative thymic weights, change compared to CPA control [2]: 17.56%
- Spleen weight, Absolute ([2]; at sacrifice): 0.066 ± 0.007*^,# g
- Thymus weight, Absolute ([2]; at sacrifice): 0.037 ± 0.007 g
- Survival rate ([3]; 1 day after CLP): 55.55%
- survival rates (survivors/total in brackets), Table 13 ([3]; 1 day after dosing): 56 (5/9)
- Survival rate ([3]; 2 days after CLP): 33.33%
- survival rates (survivors/total in brackets), Table 13 ([3]; 2 days after dosing): 33 (3/9)
- Survival rate ([3]; 3 days after CLP): 22.22%
- survival rates (survivors/total in brackets), Table 13 ([3]; 3 days after dosing): 22 (2/9)
- Survival rate ([3]; 4 days after CLP): 0%
- survival rates (survivors/total in brackets), Table 13 ([3]; 4 days after dosing): 0 (0/9)
- Survival rate ([3]; 5 days after CLP): 0%
- Survival rate ([3]; At CLP): 100%
- survival rates (survivors/total in brackets), Table 13 ([3]; Dosing Day 0): 100 (9/9)
- Survival rate ([3]; Total): 0%
- atrophic changes (decreases in lymphoid cells in the thymic cortex), FIG. 7 ([4]; CPA-treated model, in words): effectively inhibited
- splenic atrophy and decrease in lymphoid cells, FIG. 8 ([4]; CPA-treated model, in words): effectively inhibited
- Spleen: Number of white pulps [4, 9]: 12.56 ± 1.81*^,# N/histological sections
- Thymus: Incidences of thymic cortex atrophy (atrophic changes/total observed number of thymus) [4, 9]: 8/9 (88.89%)
- incidences of decrease of lymphoid cells in the thymic cortex [4, 9]: 88.89%
- numbers of white pulps of spleen, change compared to CPA control [4, 9]: 101.79%
- Body weight ([5]; 1 day after second CPA-dosing): 36.54 ± 1.72 g
- Body weight ([5]; 2 days after second CPA-dosing): 37.04 ± 1.47 g
- Body weight ([5]; At Dosing (overnight fasted)): 32.08 ± 1.47 g
- Body weight [5, 10]: 36.58 ± 1.36 g
- Body weight gains during 2 days after dosing [5]: 4.97 ± 1.67 g
- body weight (gains) change compared to the CPA control group [5]: −12.35%
- Mortalities ([6]; 1st CPA treat): 0
- Survivalities ([6]; 1st CPA treat): 100%
- Mortalities ([6]; 2nd CPA treat): 0
- Survivalities ([6]; 2nd CPA treat): 100%
- Mortalities ([6]; At CLP (day 0)): 0
- Survivalities ([6]; At CLP (day 0)): 100%
- Mortalities ([6]; Day 1): 2
- Survivalities ([6]; Day 1): 80%
- Mortalities ([6]; Day 2): 5
- Survivalities ([6]; Day 2): 30%
- Mortalities ([6]; Day 3): 2
- Survivalities ([6]; Day 3): 10%
- Mortalities ([6]; Total): 9
- Survivalities ([6]; Total): 10%
- blood total WBC numbers, change compared to CPA control [7]: 25.00%
- ratio of lymphocytes, change compared to CPA control [7]: 268.78%
- ratio of monocytes, change compared to CPA control [7]: −85.27%
- ratio of neutrophils, change compared to CPA control [7]: −51.07%
- Total WBC ([7]; blood at sacrifice): 0.58 ± 0.14 ×10^3/mm^3
- WBC differentials: Basophils ([7]; blood at sacrifice): 2.33 ± 1.22*^,## %
- WBC differentials: Eosinophils ([7]; blood at sacrifice): 1.33 ± 1.12 %
- WBC differentials: Lymphocytes ([7]; blood at sacrifice): 70.22 ± 9.90 %
- WBC differentials: Monocytes ([7]; blood at sacrifice): 5.56 ± 3.13 %
- WBC differentials: Neutrophils ([7]; blood at sacrifice): 20.56 ± 8.76 %
- Body weight ([8]; 1 day after CLP): 30.10 ± 1.23 g
- Body weight ([8]; 2 days after CLP): 29.47 ± 1.46 g
- Body weight ([8]; 3 days after CLP): 31.40 ± 0.28 g
- Body weight ([8]; At CLP (overnight fasted)): 32.98 ± 1.65 g
- Body weight [8, 10]: 34.53 ± 1.24 g

— patent publication US9446061B2, “Composition containing antibiotics and lysophosphatidylcholine for boosting immunity or treatment of bacterial infections” (priority 2011, dated 2016)
